Patent publication US9109043B2 (Tokyo Institute of Technology, priority 2010, dated 2015)
“Also recorded” adds a separate entry of the source. Where two headings read alike, the source gives them in different places.

Assays:
[1] = target: T1, insulin secretion regulation factor (ATIS1) (Mus musculus, UniProt Q6P5E4); assay: Release of radiolabelled ATIS1 from arginine-immobilized agarose by amino acids and sugars; type: binding; settings: silver stained gel, FIG. 8A
T1 construct: made in house; host or cells: cell-free: TNT Quick coupled transcription/translation system (Promega)
T1 sequence (Q6P5E4 43-1551): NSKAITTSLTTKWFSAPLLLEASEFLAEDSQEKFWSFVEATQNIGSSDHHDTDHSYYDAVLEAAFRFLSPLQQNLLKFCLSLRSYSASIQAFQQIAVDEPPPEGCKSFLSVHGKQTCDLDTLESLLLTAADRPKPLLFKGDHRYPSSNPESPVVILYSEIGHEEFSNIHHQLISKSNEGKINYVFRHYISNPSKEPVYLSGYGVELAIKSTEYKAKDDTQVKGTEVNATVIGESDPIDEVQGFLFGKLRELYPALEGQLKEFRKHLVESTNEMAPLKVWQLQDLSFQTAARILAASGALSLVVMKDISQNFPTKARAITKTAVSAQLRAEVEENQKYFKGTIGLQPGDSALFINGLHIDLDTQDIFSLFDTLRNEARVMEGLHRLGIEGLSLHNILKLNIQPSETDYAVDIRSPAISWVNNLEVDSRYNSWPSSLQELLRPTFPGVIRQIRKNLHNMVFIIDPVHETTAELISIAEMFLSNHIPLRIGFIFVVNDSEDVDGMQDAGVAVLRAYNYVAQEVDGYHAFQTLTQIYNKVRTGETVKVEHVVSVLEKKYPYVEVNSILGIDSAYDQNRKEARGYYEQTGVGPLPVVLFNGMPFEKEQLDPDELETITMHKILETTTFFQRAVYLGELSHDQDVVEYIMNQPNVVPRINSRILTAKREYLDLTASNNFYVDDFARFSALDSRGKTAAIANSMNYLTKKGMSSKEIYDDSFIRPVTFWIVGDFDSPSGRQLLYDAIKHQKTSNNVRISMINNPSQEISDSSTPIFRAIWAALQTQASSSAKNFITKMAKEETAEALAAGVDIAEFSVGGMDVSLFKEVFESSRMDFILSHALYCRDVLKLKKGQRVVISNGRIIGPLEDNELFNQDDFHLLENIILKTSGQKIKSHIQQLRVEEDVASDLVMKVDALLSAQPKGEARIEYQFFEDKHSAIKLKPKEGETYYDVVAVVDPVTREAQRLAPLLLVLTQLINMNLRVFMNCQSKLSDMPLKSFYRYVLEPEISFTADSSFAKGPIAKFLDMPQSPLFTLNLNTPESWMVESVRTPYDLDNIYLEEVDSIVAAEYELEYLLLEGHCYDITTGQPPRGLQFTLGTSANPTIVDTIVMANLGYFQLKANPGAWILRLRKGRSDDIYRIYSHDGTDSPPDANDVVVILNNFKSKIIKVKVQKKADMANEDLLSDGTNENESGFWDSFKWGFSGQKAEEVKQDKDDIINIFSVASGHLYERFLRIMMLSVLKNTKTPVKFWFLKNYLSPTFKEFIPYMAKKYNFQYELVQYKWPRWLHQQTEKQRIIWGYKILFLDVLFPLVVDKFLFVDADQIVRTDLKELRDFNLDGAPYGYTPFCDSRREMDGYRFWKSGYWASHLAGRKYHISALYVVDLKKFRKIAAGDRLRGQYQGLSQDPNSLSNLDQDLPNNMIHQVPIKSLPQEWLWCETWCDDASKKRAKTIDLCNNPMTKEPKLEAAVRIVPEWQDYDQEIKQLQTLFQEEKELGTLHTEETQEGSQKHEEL

[2] = test system: NIT-1 cells in which insulin secretion regulation factor was forcibly expressed; assay: Insulin secretion by NIT-1 cells with forced expression of insulin secretion regulation factor (ELISA); type: cell-based, mouse
[3] = target: T1, insulin secretion regulation factor (ATIS1); assay: Release of radiolabelled ATIS1 from insulin-immobilized agarose by test substance; type: binding
wild type NIT-1 cells = assay: Arginine-induced insulin secretion by wild type NIT-1 cells (ELISA); type: cell-based, mouse; settings: arginine 0.1-20 mM, 10 minutes, FIG. 4
[4] = test system: transformed cultured cells secreting fluorescently labeled insulin; assay: Fluorescence microscopy of transformed cultured cells secreting fluorescently labeled insulin; type: cell-based; settings: arginine 10 mM, 10 and 60 seconds after administration and thereafter, data not shown
Experimental: Thus, transformed cultured cells were prepared so as to secrete fluorescently labeled insulin. Using the cells, it was possible to observe insulin secretion by arginine addition and temporal changes in the intracellular localization of insulin with a fluorescent microscope. […] This experimental system can also be applied to the screening of a candidate substance, other than arginine, that promotes insulin secretion.

[5] = target: T2, insulin secretion regulation factor (Mus musculus, UniProt Q6P5E4); assay: Competitive inhibition of radiolabelled arginine binding to insulin secretion regulation factor; design: made in house; host or cells: Escherichia coli; settings: increasing concentration of cold competitor, FIG. 2B, FIG. 3A
Target sequence in this assay (Q6P5E4 43-1551): as above

[6] = target: T2, insulin secretion regulation factor; assay: Disconnection of insulin from insulin secretion regulation factor by arginine; type: binding; design: made in house; host or cells: Escherichia coli; settings: depending on amount of arginine added, FIG. 3C
Target sequence in this assay (Q6P5E4 43-1551): as above

[7] = target: T2, insulin secretion regulation factor; assay: Partial protease digestion of radiolabelled insulin secretion regulation factor in presence of amino acid; type: binding; design: made in house; host or cells: cell-free: TNT Quick coupled transcription/translation system (Promega); settings: 100 μM arginine, on ice 10 minutes, vs absence, phenylalanine or leucine
Target sequence in this assay (Q6P5E4 whole entry): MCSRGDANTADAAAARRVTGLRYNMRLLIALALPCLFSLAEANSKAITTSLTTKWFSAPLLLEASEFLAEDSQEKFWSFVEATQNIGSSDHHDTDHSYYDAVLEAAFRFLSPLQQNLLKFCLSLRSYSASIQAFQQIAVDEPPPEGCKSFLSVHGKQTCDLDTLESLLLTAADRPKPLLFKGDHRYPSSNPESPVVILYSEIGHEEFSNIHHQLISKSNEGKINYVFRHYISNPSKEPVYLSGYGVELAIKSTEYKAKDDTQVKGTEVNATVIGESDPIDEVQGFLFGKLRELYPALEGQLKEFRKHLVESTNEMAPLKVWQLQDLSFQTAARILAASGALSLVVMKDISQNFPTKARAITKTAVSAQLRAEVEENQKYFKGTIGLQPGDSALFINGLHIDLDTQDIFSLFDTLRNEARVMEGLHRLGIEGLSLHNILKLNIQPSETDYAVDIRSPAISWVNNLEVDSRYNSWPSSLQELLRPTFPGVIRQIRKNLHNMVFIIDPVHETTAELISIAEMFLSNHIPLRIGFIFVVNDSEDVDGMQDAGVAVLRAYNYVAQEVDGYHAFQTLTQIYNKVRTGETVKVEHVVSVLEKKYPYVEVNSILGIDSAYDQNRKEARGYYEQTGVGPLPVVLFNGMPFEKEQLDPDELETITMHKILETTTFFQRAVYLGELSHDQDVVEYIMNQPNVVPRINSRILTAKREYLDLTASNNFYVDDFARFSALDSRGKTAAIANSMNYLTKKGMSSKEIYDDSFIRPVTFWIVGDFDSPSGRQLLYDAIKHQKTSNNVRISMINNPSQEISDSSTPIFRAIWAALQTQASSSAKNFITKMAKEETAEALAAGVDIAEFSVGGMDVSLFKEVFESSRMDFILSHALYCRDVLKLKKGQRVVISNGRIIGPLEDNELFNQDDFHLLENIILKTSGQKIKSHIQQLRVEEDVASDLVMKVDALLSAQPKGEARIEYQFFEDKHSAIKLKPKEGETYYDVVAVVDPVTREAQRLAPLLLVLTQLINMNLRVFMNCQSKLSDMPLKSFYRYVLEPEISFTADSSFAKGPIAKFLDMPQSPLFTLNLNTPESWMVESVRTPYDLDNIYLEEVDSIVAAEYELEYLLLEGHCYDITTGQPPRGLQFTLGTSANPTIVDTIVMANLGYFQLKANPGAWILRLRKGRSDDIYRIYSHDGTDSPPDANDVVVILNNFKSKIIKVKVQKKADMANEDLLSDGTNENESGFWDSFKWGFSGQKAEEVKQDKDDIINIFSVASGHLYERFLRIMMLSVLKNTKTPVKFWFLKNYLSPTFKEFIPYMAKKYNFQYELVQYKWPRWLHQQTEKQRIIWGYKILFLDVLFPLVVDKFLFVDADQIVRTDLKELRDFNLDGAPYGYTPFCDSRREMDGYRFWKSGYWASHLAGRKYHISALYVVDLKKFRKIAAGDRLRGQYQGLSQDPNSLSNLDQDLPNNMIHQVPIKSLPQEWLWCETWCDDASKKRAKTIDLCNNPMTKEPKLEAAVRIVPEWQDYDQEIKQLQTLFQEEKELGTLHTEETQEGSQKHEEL

## NC(=O)NCCC[C@H](N)C(=O)O [citrulline]
[1]
  interaction (binding) with insulin secretion regulation factor ATIS1: did not exhibit the ATIS1 binding activity

## NCCCC[C@H](N)C(=O)O [lysine]
[1]
  interaction (binding) with insulin secretion regulation factor ATIS1: interacted with the insulin secretion regulation factor

## CC(C)=CCc1cc(/C=C/C(=O)O)ccc1O [drupanin]
[2]; 10 mM substance, cultured 10 minutes, FIG. 6A
  amount of insulin secreted per unit time: about 2 pg/cell/min
[3]; autoradiography, FIG. 6B
  competition with insulin for insulin secretion regulation factor: competes with insulin

## N=C(N)NCCC[C@H](N)C(=O)O [arginine]
[2]
  amount of insulin secreted per unit time: about 2 pg/cell/min
Wild type NIT-1 cells
  arginine-induced insulin secretion: depending on arginine concentration, insulin secretion is promoted
[3]
  competition with insulin for insulin secretion regulation factor: competes with insulin
[1]
  interaction (binding) with insulin secretion regulation factor ATIS1: interacted with the insulin secretion regulation factor
[4]
  intracellular localization and secretion of fluorescently labeled insulin: being extracellularly secreted thereafter resulting in the disappearance of fluorescence
[5]
  radiolabelled arginine disconnected from insulin secretion regulation factor: the radiolabelled arginine that had been bound was disconnected from insulin secretion regulation factor; also recorded: the amount of disconnected radiolabelled arginine increased
[6]
  insulin disconnected from insulin secretion regulation factor: the amount of disconnected insulin increases
[7]
  resistance of insulin secretion regulation factor to chymotrypsin partial digestion: significant resistance to chymotrypsin partial digestion
[7]; FIG. 2C
  resistance of insulin secretion regulation factor to trypsin partial digestion: significant resistance to trypsin partial digestion

## N[C@@H](Cc1ccccc1)C(=O)O [Phenylalanine, phenylalanine]
[1]
  interaction (binding) with insulin secretion regulation factor ATIS1: did not bind to ATIS1

## NCCC[C@H](N)C(=O)O [ornithine]
[1]
  interaction (binding) with insulin secretion regulation factor ATIS1: interacted with the insulin secretion regulation factor
